This is an account of results in PubChem BioAssay (NCI).

Among the test systems are OVCAR-3 ovarian; K-562 leukemia; MCF7 breast; UACC-257 melanoma; A549 NSCLC; 786-0 renal; BT-549 breast; NCI-H23 lung; NCI-H226 lung; A498 renal; HL-60(TB) leukemia; SK-OV-3 ovarian; SR leukemia; UO-31 renal; OVCAR-4 ovarian.
Holding throughout (experiment): DTP human tumour cell line panel, 48 h

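Assay format: 96-well plates, 48-hour exposure. TGI denotes the concentration required for complete inhibition of growth.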

With `COc1cc(O)c2c(=O)c(O)c(-c3ccc(O)c(OC)c3)oc2c1`, the TGI was over 100 µM in the assay with OVCAR-3 ovarian; 10.5 µM in the assay with K-562 leukemia; over 100 µM in the assay with MCF7 breast; over 100 µM with UACC-257 melanoma; over 100 µM in the assay with A549 NSCLC; over 100 µM with 786-0 renal. Moreover, the TGI is over 100 µM in the assay on BT-549 breast; over 100 µM with NCI-H23 lung; over 100 µM with NCI-H226 lung; over 100 µM in the assay with A498 renal; over 23 µM in the assay on HL-60(TB) leukemia.

Regarding `N#Cc1nc(-c2ccco2)oc1N`, the TGI in the assay on K-562 leukemia, in the assay on MCF7 breast, with UACC-257 melanoma, in the assay with A549 NSCLC, in the assay with SK-OV-3 ovarian and in the assay on 786-0 renal was over 10 µM throughout. The TGI with BT-549 breast, in the assay with SR leukemia, in the assay on UO-31 renal, in the assay on OVCAR-4 ovarian, in the assay with NCI-H23 lung and in the assay with NCI-H226 lung was over 10 µM each time. Also, in the assay with HL-60(TB) leukemia, the total growth inhibition concentration (TGI) was over 10 µM.

For `O=C(c1cccs1)N(C(=S)OCCOc1ccccc1)c1ccccc1`, the TGI in the assay on OVCAR-3 ovarian is 41.6 µM; with K-562 leukemia, over 100 µM; in the assay with MCF7 breast, 44.6 µM; in the assay on UACC-257 melanoma, 69.9 µM; with A549 NSCLC, over 100 µM; in the assay with SK-OV-3 ovarian it was 73.5 µM. Also, the TGI in the assay on 786-0 renal was determined as 73.7 µM; in the assay with BT-549 breast, 65.1 µM; in the assay on OVCAR-4 ovarian, 86.7 µM; in the assay on NCI-H23 lung it was 42.3 µM; with A498 renal, 50.5 µM; with HL-60(TB) leukemia, 48 µM.

As to `N#Cc1c2c(c(N)oc1=O)C(c1ccccc1)CC(=O)N2` (stereo not drawn), the TGI with OVCAR-3 ovarian, with K-562 leukemia, in the assay with MCF7 breast, with UACC-257 melanoma, with A549 NSCLC and with SK-OV-3 ovarian was over 100 µM each time. The TGI with 786-0 renal, with BT-549 breast, with UO-31 renal, with OVCAR-4 ovarian, in the assay on NCI-H23 lung and in the assay on NCI-H226 lung was over 100 µM throughout. The same compound had a TGI with HL-60(TB) leukemia of over 100 µM.

Consider `O=C(NC1CCN(Cc2ccccc2)CC1)c1ccc(I)cc1`, for which the TGI in the assay with OVCAR-3 ovarian, with K-562 leukemia, with UACC-257 melanoma, with A549 NSCLC, in the assay on SK-OV-3 ovarian and in the assay with 786-0 renal was over 100 µM each time. Also, the TGI with BT-549 breast, in the assay with SR leukemia, in the assay on UO-31 renal, in the assay on OVCAR-4 ovarian, with NCI-H23 lung and with NCI-H226 lung was over 100 µM throughout. Further, the TGI in the assay on A498 renal and in the assay with HL-60(TB) leukemia was over 100 µM throughout.

For `COC(=O)c1ccc2c(c1)S/C(=C/c1ccc3ccc4cccc5ccc1c3c45)S2`, the TGI was 49.3 µM in the assay on OVCAR-3 ovarian; over 100 µM with K-562 leukemia; over 100 µM in the assay on MCF7 breast; over 100 µM in the assay on UACC-257 melanoma; over 100 µM in the assay with A549 NSCLC; over 100 µM with SK-OV-3 ovarian. Moreover, the TGI with 786-0 renal was over 100 µM; in the assay with BT-549 breast, over 100 µM; in the assay with UO-31 renal, over 100 µM; with OVCAR-4 ovarian, over 100 µM; in the assay on NCI-H23 lung it was 52.7 µM; with NCI-H226 lung it was over 100 µM. Further, the figures for the TGI in the assay on A498 renal and in the assay with HL-60(TB) leukemia were over 100 µM and 46.9 µM, respectively.

Turning to `CC(C)(C)C1=CC(C)(n2[nH]c(=O)n(-c3ccccc3)c2=O)C=C(C(C)(C)C)C1=O`, the TGI with K-562 leukemia, in the assay with MCF7 breast, in the assay on UACC-257 melanoma, in the assay on A549 NSCLC, in the assay on SK-OV-3 ovarian and in the assay with 786-0 renal was over 100 µM in each case. Besides, the TGI with BT-549 breast, with UO-31 renal, with OVCAR-4 ovarian, with NCI-H23 lung, in the assay on NCI-H226 lung and in the assay on A498 renal was over 100 µM in each case.

As for `CCCCc1ccc(-n2sc3ncc(C)cc3c2=O)cc1`, the TGI is 47.8 µM with OVCAR-3 ovarian; over 100 µM in the assay on K-562 leukemia; 34.3 µM in the assay with MCF7 breast; 78.9 µM with A549 NSCLC; over 100 µM in the assay on SK-OV-3 ovarian; over 100 µM with 786-0 renal. Moreover, the TGI in the assay on BT-549 breast is 40.7 µM; in the assay with SR leukemia, over 100 µM; with UO-31 renal, 20.2 µM; with OVCAR-4 ovarian, over 100 µM; in the assay with NCI-H23 lung, over 100 µM; with NCI-H226 lung it was over 100 µM. Further, the TGI in the assay with HL-60(TB) leukemia was determined as 32.7 µM.

Regarding `COc1ccc(/C=N/n2c(C)n[nH]c2=O)c(OC)c1`, the TGI with OVCAR-3 ovarian, with K-562 leukemia, in the assay with MCF7 breast, with UACC-257 melanoma, with A549 NSCLC and in the assay with SK-OV-3 ovarian was over 100 µM each time. For the same compound, the TGI in the assay with 786-0 renal, in the assay with BT-549 breast, in the assay with UO-31 renal, in the assay on OVCAR-4 ovarian, in the assay on NCI-H23 lung and in the assay with NCI-H226 lung was over 100 µM throughout. The compound further returned a TGI with A498 renal of over 100 µM.

As for `COC(=O)C(CCSC)NC(=O)CNC(=O)CSc1nnc(COc2ccc(Cl)cc2)n1-c1ccccc1` (stereo not drawn), the TGI in the assay with K-562 leukemia was over 100 µM; in the assay on MCF7 breast, 39.6 µM; in the assay with UACC-257 melanoma, 32.2 µM; with A549 NSCLC, over 100 µM; in the assay with SK-OV-3 ovarian, 34 µM; in the assay on 786-0 renal it was 29.5 µM. The TGI in the assay on BT-549 breast stood at 30.6 µM; in the assay on UO-31 renal, 22.1 µM; with OVCAR-4 ovarian, 50.1 µM; in the assay on NCI-H23 lung, 30.2 µM; in the assay with NCI-H226 lung, 36.9 µM; in the assay on A498 renal, 95.7 µM. Also, in the assay on HL-60(TB) leukemia, the TGI turned out to be 38.3 µM.

A word on the TGI: it is the concentration giving total growth inhibition. Read a high TGI as lower sensitivity of the cells.
